Test results: US20070218460A1, “Method of Estimating Toxicity of Drug” (TAKEDA PHARMACEUTICAL COMPANY LIMITED, priority 2003, published 2007)
Like-named read-outs stand apart in the source and are kept apart here.

Experiments:
HepG2 cells [1] = assay: Electron-microscopic examination of PLsis induction potential (myelin-like structure)
Source text: Using 30 kinds of the following commercially available drugs as test compounds, the level of PLsis induction potential was examined with the emergence of an intracellular myelin-like structure or a structure having a high electron density, which is an early image thereof, as an index by electronmicroscopic observation.
HepG2 cells (purchased from ATCC) were exposed to the test compound by a conventional method. HepG2 cells used were of the cell growth phase. The attached HepG2 cells were washed twice with. Dulbecco's phosphate buffered saline (calcium and magnesium salt free; PBS(−))(Dainippon Pharmaceutical Co., Ltd.) containing 0.05 w/v % EDTA, detached with a cell dissociation solution of 0.25 vol % trypsin-1 mmol/L EDTA (Gibco BRL) diluted 2-fold with PBS(−), centrifuged to remove the supernatant, and adjusted to a concentration of 2×10^5 cells/250 μL with a culture medium [Dulbecco's modified Eagle medium (DMEM)(Gibco BRL) supplemented with 50 U/mL penicillin (Gibco BRL)-[…] streptomycin (Gibco BRL) and 5 vol % FBS (Bio whittaker)]. DMSO alone or a culture medium containing the above-mentioned test compound in DMSO solution was dispensed to a well by 250 μL, the above-mentioned cell suspension (250 μL) was added, and cultured in a CO2 incubator (7100; Napco) under an atmosphere of 5% CO2—95% air at 37° C.
After culture for 72 hr, the culture medium was removed, and the cells were fixed with 1 w/v % glutaraldehyde solution. After fixing with 2 w/v % osmic acid for 2 hr by a conventional method and dehydrating with an alcohol series, the cells were embedded in a resin (Quetol 812). Ultrathin slices were prepared and, after electron staining, observed with an electron microscope (H-300; Hitachi) and photographed in 3 or more pictures per each sample (magnification ×5000). The processing after post-fixation was performed by Applied Medical Research.

fabp1 = assay: Real-time quantitative PCR of PLsis marker gene expression; type: cell-based, human; settings: HepG2 cells, 24 hr exposure, relative value, control group = 1.0, GAPDH internal standard, n=3
Method: (§1) Using RNeasy Mini Kit (QIAGEN), total RNA was purified from the cells, and cDNA was synthesized in a 100 μL system using TaqMan Reverse Transcription Reagents (PE Applied Biosystems).
(§2) As the primer for glyceraldehyde-3-phosphoric acid dehydrogenase (GAPDH) and VIC labeled probe, those attached to TaqMan GAPDH Control Reagents (PE Applied Biosystems) were used.
(§3) Using 100 μL of the reaction mixture containing 5 μL of cDNA (1×TaqMan Universal PCR Master Mix (PE Applied Biosystems), 200 nM forward primer, 200 nM reverse primer and 200 nM TaqMan probe), 40 cycles of (1 cycle=95° C., 15 sec; 60° C., 1 min) PCR were performed. PCR and fluorescence detection were performed using ABI PRISM Sequence Detector 7000 (PE Applied Biosystems). As the internal standard, GAPDH was used to amend the measurement values. For the determination of significant difference, t-test was used (n=3).
(§4) For each test compound, the expression variation rate of 12 genes each relative to the control group was determined.

tagln = assay: as above; type: cell-based, human; settings: HepG2 cells, 24 hr exposure, relative value, control group = 1.0, GAPDH internal standard, n=3
Method: as §1, §2, §3, §4

lss = assay: as above; type: cell-based, human; settings: HepG2 cells, 24 hr exposure, relative value, control group = 1.0, GAPDH internal standard, n=3
Method: as §1, §2, §3, §4

asah1 = assay: as above; type: cell-based, human; settings: HepG2 cells, 24 hr exposure, relative value, control group = 1.0, GAPDH internal standard, n=3
Method: as §1, §2, §3, §4

depp = assay: as above; type: cell-based, human; settings: HepG2 cells, 24 hr exposure, relative value, control group = 1.0, GAPDH internal standard, n=3
Method: as §1, §2, §3, §4

serpina3 = assay: as above; type: cell-based, human; settings: HepG2 cells, 24 hr exposure, relative value, control group = 1.0, GAPDH internal standard, n=3
Method: as §1, §2, §3, §4

mgc4171 = assay: as above; type: cell-based, human; settings: HepG2 cells, 24 hr exposure, relative value, control group = 1.0, GAPDH internal standard, n=3
Method: as §1, §2, §3, §4

hpn = assay: as above; type: cell-based, human; settings: HepG2 cells, 24 hr exposure, relative value, control group = 1.0, GAPDH internal standard, n=3
Method: as §1, §2, §3, §4

flj22362 = assay: as above; type: cell-based, human; settings: HepG2 cells, 24 hr exposure, relative value, control group = 1.0, GAPDH internal standard, n=3
Method: as §1, §2, §3, §4

nr0b2 = assay: as above; type: cell-based, human; settings: HepG2 cells, 24 hr exposure, relative value, control group = 1.0, GAPDH internal standard, n=3
Method: as §1, §2, §3, §4

slc2a3 = assay: as above; type: cell-based, human; settings: HepG2 cells, 24 hr exposure, relative value, control group = 1.0, GAPDH internal standard, n=3
Method: as §1, §2, §3, §4

kiaa1001 = assay: as above; type: cell-based, human; settings: HepG2 cells, 24 hr exposure, relative value, control group = 1.0, GAPDH internal standard, n=3
Method: as §1, §2, §3, §4

HepG2 cells [2] = assay: Highest concentration at which cells were viable after 72 hr exposure; type: cell-based, human

| SMILES | frequency of appearance of myelin-like structure (HepG2 cells [1]) | expression variation rate fabp1 (fabp1) | expression variation rate tagln (tagln) | expression variation rate lss (lss) | expression variation rate asah1 (asah1) | expression variation rate depp (depp) | expression variation rate serpina3 (serpina3) | expression variation rate mgc4171 (mgc4171) | expression variation rate hpn (hpn) | expression variation rate flj22362 (flj22362) | expression variation rate nr0b2 (nr0b2) | expression variation rate slc2a3 (slc2a3) | expression variation rate kiaa1001 (kiaa1001) | addition concentration (highest concentration at which cells survived after 72 hr of culture) (HepG2 cells [2]) | frequency of appearance of myelin-like structure (HepG2 cells [1]; HepG2 cells, 72 hr culture, electron microscopy, blind test n=4, addition concentration 8.3 or 25 μmol/L) | frequency of appearance of myelin-like structure (HepG2 cells [1]; HepG2 cells, 72 hr, electromicroscopic test, class symbols in head of Table 2) |
| --- | --- | --- | --- | --- | --- | --- | --- | --- | --- | --- | --- | --- | --- | --- | --- | --- |
| Clc1ccccc1CNCC1CCC(CNCc2ccccc2Cl)CC1 (centres unmarked) [AY-9944] | ++ | 3.16 | 0.21 | 4.78 | 4.71 | 3.32 | 1.97 | 1.63 | 2.68 | 1.45 | 2.71 | 0.22 | 1.68 | 8.3 µmol/L |  |  |
| CC(=O)Nc1ccc(O)cc1 [acetaminophen] |  | 1.11 | 0.93 | 0.91 | 1.18 | 0.94 | 0.99 | 0.75 | 1.10 | 1.02 | 0.69 | 1.50 | 1.13 | 25 µmol/L |  |  |
| CCCCc1oc2ccccc2c1C(=O)c1cc(I)c(OCCN(CC)CC)c(I)c1 [amiodarone] | ++ | 2.01 | 0.56 | 1.82 | 1.69 | 1.12 | 1.17 | 1.32 | 2.15 | 1.07 | 1.35 | 0.35 | 1.56 | 8.3 µmol/L |  |  |
| CN(C)CCC=C1c2ccccc2CCc2ccccc21 [amitriptyline] | +++ | 2.39 | 0.23 | 1.79 | 3.10 | 5.08 | 3.01 | 2.22 | 2.20 | 1.80 | 1.64 | 0.22 | 2.11 | 25 µmol/L |  |  |
| CN1CCN(C(c2ccccc2)c2ccc(Cl)cc2)CC1 (centres unmarked) [chlorcyclizine] | +++ | 2.62 | 0.30 | 2.98 | 3.23 | 3.24 | 2.23 | 2.43 | 2.97 | 2.96 | 2.46 | 0.20 | 2.47 | 25 µmol/L |  |  |
| CN1CCN(C2=Nc3cc(Cl)ccc3Nc3ccccc32)CC1 [clozapine] | ++ | 3.89 | 0.24 |  |  | 5.15 | 1.96 | 1.88 | 2.35 | 1.92 | 1.97 | 0.24 | 3.34 | 25 µmol/L |  |  |
| CN(C)CCCN1c2ccccc2CCc2ccccc21 [imipramine] |  | 2.45 | 0.15 | 2.69 | 4.52 | 3.36 | 2.12 | 1.81 | 2.32 | 1.80 | 3.41 | 0.15 | 2.11 | 25 µmol/L |  |  |
| CCOC(=O)N1CCC(=C2c3ccc(Cl)cc3CCc3cccnc32)CC1 [loratadine] |  |  |  |  |  |  |  |  |  |  |  |  |  | 8.3 µmol/L | mild | + |
| N=C(N)c1ccc(OCCCCCOc2ccc(C(=N)N)cc2)cc1 [pentamidine] |  | 0.15 | 0.68 | 0.52 | 0.93 | 2.88 | 2.12 | 0.73 | 2.50 | 2.49 | 1.83 | 0.50 | 1.82 | 8.3 µmol/L |  |  |
| C=C[C@H]1C[N@@]2CC[C@H]1C[C@@H]2[C@@H](O)c1ccnc2ccc(OC)cc12 [quinidine] | − | 1.38 | 0.63 |  | 1.43 |  |  |  |  |  |  | 0.37 |  | 25 µmol/L |  |  |
